According to patent US6020345A, “Pyridin-2-yl-methylamine derivatives, method of preparing and application as medicine” (Pierre Fabre Medicament, priority 1996, dated 2000):
Like-named read-outs stand apart in the source and are kept apart here.

How the values were obtained:
[1] = target: T1, D2 dopaminergic receptors (Rattus norvegicus, UniProt P61169); assay: In vitro affinity for the D2 dopaminergic receptors by displacement of (^3 H) YM-09151-2; assay type: binding
T1 construct: rat striatum is used; from tissue; host or cells: rat striatum
Method: 2-Measurement of the affinity of the compounds of the invention for the D2 receptors
The in vitro affinity of the compounds of the invention for the D2 dopaminergic receptors was determined by measuring the displacement of (^3 H) YM-09151-2 (NET-1004 70-87 Ci/mmol). The study of binding to the D2 receptor is carried out as described by Niznik (Naunyn-Schmiedeberg's Arch. Pharmacol. Methods, 1985, 329, 333-38). For these experiments, rat striatum is used. After thawing the brain in 50 mmol Tris-HCl buffer, pH=7.40 at 25° C., the striatum is collected and homogenized in 40 volumes of buffer maintained at 4° C. The homogenate is centrifuged at 20,000 g for 10 minutes, the centrifugation pellet is suspended in the same volume of buffer and again centrifuged. The final pellet is suspended in cold 50 mmol Tris-HCl reaction buffer, pH=7.40 at 25° C. containing 120 mmol of NaCl and 5 mmol of KCl. The final concentration of tissue in the incubation medium is 2 mg/tube. The reaction tubes contain 0.20 ml of [^3 H]YM-09151-2 (0.05 mmol final), 0.20 ml of product to be tested 6-7 concentrations and 1.60 ml of tissue. Nonspecific binding is defined using 1 mmol of (+)-Butaclamol. The reaction tubes are incubated at 23° C. for 60 minutes and then their content is rapidly filtered under vacuum on Whatman GF/B filters, the tubes are rinsed twice with 5 ml of 50 mmol Tris-HCl buffer, pH=7.40 at 25° C. The radioactivity collected on the filter is analyzed by liquid scintillation by adding 4 ml of scintillation fluid (Emulsifier Safe, Packard). All the experiments are carried out in triplicate.
(§1) The inhibition constants (Ki) of the products of the invention are estimated from displacement experiments using the nonlinear regression program RADLIG version 4 from EBDA (Equilibrium Binding Data Analysis) (Biosoft, Cambridge, UK, McPherson, 1985). […] The pKi (-logKi) values are given in the form of the mean ±SEM of at least 3 experiments.

5-HT1A receptors [2] = target: T2, 5-HT1A receptors (Rattus norvegicus, UniProt P19327); assay: In vitro affinity for the 5-HT1A receptors by displacement of (^3 H)8-OH-DPAT; assay type: binding; parameters: rat cerebral cortices are used; from tissue; host or cells: rat cerebral cortex; conditions: for affinity for the 5-HT1A receptors (in words): in vitro; for pKi 5-HT1A: mean of at least 3 experiments, rat cerebral cortex, (^3 H)8-OH-DPAT; for 5-HT1A /D2 Selectivity: ratio of affinity constants (Ki) D2 /(Ki) 5-HT1A
T2 sequence (P19327 1-422): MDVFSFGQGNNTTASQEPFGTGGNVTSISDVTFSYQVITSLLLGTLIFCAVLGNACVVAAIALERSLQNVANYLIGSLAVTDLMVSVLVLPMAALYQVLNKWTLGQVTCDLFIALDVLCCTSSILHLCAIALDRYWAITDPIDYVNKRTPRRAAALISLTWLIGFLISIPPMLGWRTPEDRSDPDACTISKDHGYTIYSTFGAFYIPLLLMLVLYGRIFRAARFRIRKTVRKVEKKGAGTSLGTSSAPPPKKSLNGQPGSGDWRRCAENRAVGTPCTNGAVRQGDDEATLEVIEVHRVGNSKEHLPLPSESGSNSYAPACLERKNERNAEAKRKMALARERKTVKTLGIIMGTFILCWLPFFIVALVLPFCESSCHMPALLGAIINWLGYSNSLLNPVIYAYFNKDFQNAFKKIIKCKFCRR
Method: 1-Measurement of the affinity of the compounds of the invention for the 5-HT1A receptors
The study of binding to the 5-HT1A receptor was carried out as described by Sleight and Peroutka (Naunyn-Schmiedeberg's Arch. Pharmaco. 1991, 343, 106-16). For these experiments, rat cerebral cortices are used. After thawing the brain in 50 mmol Tris-HCl buffer, pH=7.40 at 25° C., the cerebral cortex is removed and homogenized in 20 volumes of buffer maintained at 4° C. The homogenate is centrifuged at 39,000 g for 10 minutes, the centrifugation pellet is suspended in the same volume of buffer and again centrifuged. After suspending again under the same conditions, the homogenate is incubated for 10 minutes at 37° C. and then centrifuged again. The final pellet is suspended in cold 50 mmol Tris-HCl reaction buffer, pH=7.40 at 25° C. containing 10 mmol of pargyline, 4 mmol of CaCl2 and 0.10% of ascorbic acid. The final concentration of tissue in the incubation medium is 10 mg/tube.
Nonspecific binding is defined using 10 mmol of 5-HT. The reaction tubes are incubated at 23° C. for 30 minutes and then their content is rapidly filtered under vacuum on Whatman GF/B filters, the tubes are rinsed twice with 5 ml of 50 mmol Tris-HCl buffer, pH=7.4 at 25° C. The radioactivity collected on the filter is analyzed by liquid scintillation by adding 4 ml of scintillation fluid (Emulsifier Safe, Packard). All the experiments are carried out in triplicate.
as §1

5-HT1A receptors [3] = target: T2, 5-HT1A receptors; assay: In vivo 5-HT1A agonist activity: lower lip retraction (LLR) in rats after oral administration; parameters: Sprague Dawley male rats; from tissue; host or cells: whole animal, Sprague Dawley male rats (central nervous system); species or system rat (Sprague Dawley male); conditions: 1 h
Description: 3-Evaluation of the agonist activity of the 5-HT1A receptors of the compounds of the invention in vivo
Sprague Dawley male rats (ICO: OFAD [IOPS], Iffa Credo, France) weighing 160-180 g on their arrival and 180-200 g at the beginning of the tests are used. The animals are quarantined for 4 to 8 days with free access to standard laboratory food before their use in the experiments. Animals are housed individually in plastic cages on a support, (28 cm×21 cm×18 cm) with a floor having a wire mesh covering (RC Iffa Credo), 24 hours before the tests. Water filtered on 0.22 μm is available ad libitum by means of an automatic dispenser. The quarantine area and the experimentation laboratory are air-conditioned (temperature: 22±1° C.; relative humidity: 55±5%) and illuminated from 07:00 to 19:00. All the rats are treated in accordance with laboratory animal ethics (Guide for the Care and Use of Laboratory Animals, U.S. Department of Agriculture. Public Health Service. National Institutes of Health publication No. 85-23, Revised 1985), and the protocol (No. 15) is carried out in accordance with the recommendations of the local ethics committee on animal research.
The methods used are essentially identical to those described previously (Drug. Dev. Res. 1992, 26, 21-48; Eur. J. Pharmacol. 1995, 281, 219-28).
The behavior of the animal is observed for a period of 10 minutes each, centred on t60 minutes, after administration by the oral route. Four animals are observed individually during the 10 minute period (from t55 to t65); the 4 rats are observed in turn, every 15 seconds, duration of observation 10 seconds per animal. During each of these observation periods, the presence (1) or absence (0) of lower lip retraction (LLR) in the animal is noted. […] This cycle is repeated 10 times over a period of 10 minutes; thus, the frequency of a behavior may vary from 0 to 10 for each observation period. Each day, two animals from each group receive the same dose of the same product.
The products are dissolved in distilled water or suspended in an aqueous solution of Tween 80 (2 drops/10 ml of distilled water). The products are administered in a volume of 10 ml/kg and the doses are expressed in basal weight. The order of administration of the products and of the doses is randomized.

[4] = mean of at least 3 experiments, rat striatum, (^3 H)YM-09151-2
[5] = po, read-out: LLR p.o (60 minutes) ED50
[6] = read-out: LLR p.o (60 minutes) ED50, oral, observed t55 to t65 minutes
[7] = mean of at least 3 experiments, rat striatum, (^3 H)YM-09151-2, read-out: pKi D2 (converted)

T1 sequence (P61169 whole entry): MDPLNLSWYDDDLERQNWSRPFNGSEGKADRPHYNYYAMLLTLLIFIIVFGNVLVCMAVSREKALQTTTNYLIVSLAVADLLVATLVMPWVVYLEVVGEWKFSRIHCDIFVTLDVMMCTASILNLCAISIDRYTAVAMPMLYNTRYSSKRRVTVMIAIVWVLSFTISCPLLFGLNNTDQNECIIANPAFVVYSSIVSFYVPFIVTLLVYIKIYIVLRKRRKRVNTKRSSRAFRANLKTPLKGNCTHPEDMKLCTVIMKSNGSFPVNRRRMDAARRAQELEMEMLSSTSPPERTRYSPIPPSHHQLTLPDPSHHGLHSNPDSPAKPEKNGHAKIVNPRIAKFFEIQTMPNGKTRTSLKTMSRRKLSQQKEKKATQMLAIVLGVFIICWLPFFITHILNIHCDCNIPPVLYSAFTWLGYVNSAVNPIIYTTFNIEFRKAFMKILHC

SMILES | pKi D2 [1, 4] | affinity for the 5-HT1A receptors (in words) (5-HT1A receptors [2]) | ED50 (5-HT1A receptors [3]; [5]) [mg/kg] | ED50 (5-HT1A receptors [3]; [6]) [mg/kg] | pKi 5-HT1A (5-HT1A receptors [2]) | 5-HT1A /D2 Selectivity (5-HT1A receptors [2]) | Ki [1] [nM] | Ki [1, 7] [nM] | Ki (5-HT1A receptors [2]; read-out: pKi 5-HT1A (converted)) [nM]
CCCN(CCC)C1CCc2cccc(O)c2C1 (stereo not shown) [8-OH-DPAT, 7-dipropylamino-5,6,7,8-tetrahydronaphthalen-1-ol, reference compound] | 6.26 | high affinity for the 5-HT1A receptors | 5 |  |  |  |  |  | 
O=C1CC2(CCCC2)CC(=O)N1CCCCN1CCN(c2ncccn2)CC1 [Buspirone, reference compound] |  | high affinity for the 5-HT1A receptors |  | 20 |  |  |  |  | 
CNc1cccc(CNCC2(F)CCN(C(=O)c3ccc(Cl)c(Cl)c3)CC2)n1 [I-11] | 6.40 |  |  | 0.31 | 9.67 | 1862 |  |  | 
CN(C)c1cccc(CNCC2(F)CCN(C(=O)c3ccc(F)c(Cl)c3)CC2)n1 [I-13, (3-chloro-4-fluoro-phenyl)-(4-fluoro-4-{[(6-dimethylaminopyridin-2-yl-methyl)amino]methyl}-piperidin-1-yl)methanone] | 6.56 |  |  | 0.31 | 9.92 | 2291 |  |  | 
CN(C)c1cccc(CNCC2(F)CCN(C(=O)c3ccc(Cl)c(Cl)c3)CC2)n1 [I-14, (3,4-dichlorophenyl)-(4-fluoro-4-{[(6-dimethylaminopyridin-2-yl-methyl)amino]methyl}piperidin-1-yl)-methanone] | 6.48 |  |  | 0.31 | 9.61 | 1349 |  |  | 
O=C(c1ccc(F)c(Cl)c1)N1CCC(F)(CNCc2cccc(-c3ccco3)n2)CC1 [I-32, (3-chloro-4-fluorophenyl)-(4-fluoro-4-{[(6-furan-2-yl-pyridin-2-yl-methyl)amino]methyl}-piperidin-1-yl)methanone] | 5.65 |  |  | 0.31 | 9.55 | 7942 |  |  | 
CNc1nc(CNCC2(F)CCN(C(=O)c3ccc(F)c(Cl)c3)CC2)ccc1C [I-55, (3-chloro-4-fluoro-phenyl)-(4-fluoro-4-{[(5-methyl-6-methylaminopyridin-2-ylmethyl)amino]-methyl}piperidin-1-yl)methanone] |  |  | 0.08 |  | 10.12 | 16982 | 1290 |  | 
O=C(c1ccc(F)c(Cl)c1)N1CCC(F)(CNCc2cccc(N3CCC3)n2)CC1 [I-56] |  |  |  | 0.08 |  | 7414 |  | 1020 | 0.138
CCNc1cccc(CNCC2(F)CCN(C(=O)c3ccc(F)c(Cl)c3)CC2)n1 [I-58] |  |  |  | 0.31 | 9.73 | 1259 |  | 234 | 
CNc1cccc(CNCC2(F)CCN(C(=O)c3ccc(F)c(Cl)c3)CC2)n1 [I-59] |  |  |  | 0.31 | 9.69 | 5011 |  | 1020 | 
Cc1ccc(CNCC2(F)CCN(C(=O)c3ccc(F)c(Cl)c3)CC2)nc1N(C)C [I-61, (3-chloro-4-fluoro-phenyl)-(4-fluoro-4-{[(5-methyl-6-dimethylaminopyridin-2-yl-methyl)amino]-methyl}piperidin-1-yl)methanone] |  |  |  | 0.08 | 9.50 | 1906 |  | 603 | 
O=C(c1ccc(F)c(Cl)c1)N1CCC(F)(CNCc2cccc(-c3cc[nH]n3)n2)CC1 [I-62] |  |  |  | 0.31 | 9.34 | 16594 |  | 7590 | 
Cc1ccc(CNCC2(F)CCN(C(=O)c3ccc(Cl)c(Cl)c3)CC2)nc1 [I-65] |  |  |  | 0.31 | 9.24 | > 10000 |  | > 10000 | 
